Experimental data taken from US11311520B2, “Substituted dihydroimidazopyridinediones as MKNK1 and MKNK2 inhibitors” (Bayer Pharma Aktiengesellschaft, priority 2017, dated 2022).

The compounds below were run against human full-length MKNK1 (Homo sapiens (Human), UniProt Q9BUB5, T344D) (assay: MKNK1 kinase high ATP assay (TR-FRET)). Conditions: 2 mM ATP, 15 min preincubation with enzyme, GST-MKNK1 (T344D).
Format: biochemical
Procedure: MKNK1 Kinase High ATP Assay
MKNK1-inhibitory activity at high ATP of compounds of the present invention after their preincubation with MKNK1 was quantified employing the TR-FRET-based MKNK1 high ATP assay as described in the following paragraphs.
A recombinant fusion protein of Glutathione-S-Transferase (GST, N-terminally) and human full-length MKNK1 (amino acids 1-424 and T344D of accession number BAA 19885.1), expressed in insect cells using baculovirus expression system and purified via glutathione sepharose affinity chromatography, was purchased from Carna Biosciences (product no 02-145) and used as enzyme. As substrate for the kinase reaction the biotinylated peptide biotin-Ahx-IKKRKLTRRKSLKG (SEQ ID NO: 1) (C-terminus in amide form) was used, which can be purchased e.g. from the company Biosyntan (Berlin-Buch, Germany)
For the assay 50 nL of a 100 fold concentrated solution of the test compound in DMSO was pipetted into a black low volume 384 well microtiter plate (Greiner Bio-One, Frickenhausen, Germany), 2 μL of a solution of MKNK1 in aqueous assay buffer [50 mM HEPES pH 7.5, 5 mM MgCl2, 1.0 mM dithiothreitol, 0.005% (v/v) Nonidet-P40 (Sigma)] was added and the mixture was incubated for […] at 22° C. to allow pre-binding of the test compounds to the enzyme before the start of the kinase reaction. Then the kinase reaction was started by the addition of 3 μL of a solution of adenosine-tri-phosphate (ATP, 3.3 mM=>final conc. in the 5 μL assay volume is 2 mM) and substrate (0.1 μM=>final conc. in the 5 μL assay volume is 0.06 μM) in assay buffer and the resulting mixture was incubated for a reaction time of 30 min at 22° C. The concentration of MKNK1 was adjusted depending of the activity of the enzyme lot and was chosen appropriate to have the assay in the linear range, typical concentrations were in the range of 0.003 μg/mL. The reaction was stopped by the addition of 5 μL of a solution of TR-FRET detection reagents (5 nM streptavidine-XL665 [Cisbio Bioassays, Codolet, France] and 1 nM anti-ribosomal protein S6 (pSer236)-antibody from Invitrogen [#44921G] and 1 nM LANCE EU-W1024 labeled ProteinG [Perkin-Elmer, product no. AD0071]) in an aqueous EDTA-solution (100 mM EDTA, 0.1% (w/v) bovine serum albumin in 50 mM HEPES pH 7.5).
The resulting mixture was incubated for 1 h at 22° C. to allow the formation of complex between the phosphorylated biotinylated peptide and the detection reagents. Subsequently the amount of phosphorylated substrate was evaluated by measurement of the resonance energy transfer from the Eu-chelate to the streptavidine-XL. Therefore, the fluorescence emissions at 620 nm and 665 nm after excitation at 350 nm were measured in a TR-FRET reader, e.g. a Rubystar (BMG Labtechnologies, Offenburg, Germany) or a Viewlux (Perkin-Elmer). The ratio of the emissions at 665 nm and at […] was taken as the measure for the amount of phosphorylated substrate. The data were normalised (enzyme reaction without inhibitor=0% inhibition, all other assay components but no enzyme=100% inhibition).

human full-length MKNK1, sequence (Q9BUB5 other isoform, or with tags, fused parts or gaps T344D): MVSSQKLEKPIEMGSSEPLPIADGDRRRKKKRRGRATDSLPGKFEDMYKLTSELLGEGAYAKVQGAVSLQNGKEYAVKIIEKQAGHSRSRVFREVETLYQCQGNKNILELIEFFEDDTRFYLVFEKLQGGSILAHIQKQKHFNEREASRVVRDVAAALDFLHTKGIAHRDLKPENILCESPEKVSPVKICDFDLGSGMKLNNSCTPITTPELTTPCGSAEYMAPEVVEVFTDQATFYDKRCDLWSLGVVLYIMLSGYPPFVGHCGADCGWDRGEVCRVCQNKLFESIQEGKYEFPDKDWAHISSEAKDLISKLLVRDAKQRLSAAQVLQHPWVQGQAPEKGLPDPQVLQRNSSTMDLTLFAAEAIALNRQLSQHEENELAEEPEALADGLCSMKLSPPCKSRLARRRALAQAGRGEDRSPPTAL

Compared with `Cc1cc(Nc2ncnc3c2ncn3CC(=O)O)c(=O)n2c1C(=O)NC21CCCCC1` [Example 48, {6-[(8′-Methyl-1′,5′-dioxo-1′,5′-dihydro-2′H-spiro[cyclohexane-1,3′-imidazo[1,5-a]pyridin]-6′-yl)amino]-9H-purin-9-yl}acetic acid], `Cc1cc(Nc2ncnc3c2ncn3CC(=O)N(C)C)c(=O)n2c1C(=O)NC21CCCCC1` [Example 49, N,N-Dimethyl-2-{6-[(8′-methyl-1′,5′-dioxo-1′,5′-dihydro-2′H-spiro[cyclohexane-1,3′-imidazo[1,5-a]pyridin]-6′-yl)amino]-9H-purin-9-yl}acetamide] is 17-fold higher in IC50: 29.4 nM for the first, 490 nM for the second. The first is the more potent here.

Compared with `Cc1cc(Nc2ncnc3c2ncn3CC(=O)N(C)CCN(C)C)c(=O)n2c1C(=O)NC21CCCCC1` [Example 50], `Cc1cc(Nc2ncnc3sc(C(=O)N(C)CCN(C)C)cc23)c(=O)n2c1C(=O)NC21CCCC1` [Example 60, N-[2-(Dimethylamino)ethyl]-N-methyl-4-[(8′-methyl-1′,5′-dioxo-1′,5′-dihydro-2′H-spiro[cyclopentane-1,3′-imidazo[1,5-a]pyridin]-6′-yl)amino]thieno[2,3-d]pyrimidine-6-carboxamide] is 150-fold lower in IC50: 950 nM for the first, 6.3 nM for the second. The second is the more potent here.

First: Cc1cc(Nc2ncnc3scnc23)c(=O)n2c1C(=O)NC21CCCCC1 [Example 51, 8′-Methyl-6′-([1,3]thiazolo[5,4-d]pyrimidin-7-ylamino)-2′H-spiro[cyclohexane-1,3′-imidazo[1,5-a]pyridine]-1′,5′-dione]
Second: Cc1cc(Nc2ncnc3sccc23)c(=O)n2c1C(=O)NC21CCCC1 [Example 56, 8′-Methyl-6′-(thieno[2,3-d]pyrimidin-4-ylamino)-2′H-spiro[cyclopentane-1,3′-imidazo[1,5-a]pyridine]-1′,5′-dione]
The IC50 of the first is 29-fold higher: 2.9 nM for the first, 0.1 nM for the second. The second is the more potent here.

First: Cc1cc(Nc2ncnc3occc23)c(=O)n2c1C(=O)NC21CCCCC1 [Example 52, 6′-(Furo[2,3-d]pyrimidin-4-ylamino)-8′-methyl-2′H-spiro[cyclohexane-1,3′-imidazo[1,5-a]pyridine]-1′,5′-dione]
Second: Cc1cc(Nc2ncnc3[nH]ccc23)c(=O)n2c1C(=O)NC21CCCC1 [Example 55, 8′-Methyl-6′-(7H-pyrrolo[2,3-d]pyrimidin-4-ylamino)-2′H-spiro[cyclopentane-1,3′-imidazo[1,5-a]pyridine]-1′,5′-dione]
The IC50 of the first is 43-fold higher: 13 nM for the first, 0.3 nM for the second. The second is the more potent here.

Compared with `Cc1cc(Nc2ncnc(NC(=O)C3CC3)n2)c(=O)n2c1C(=O)NC21CCCC1` [Example 53, N-{4-[(8′-Methyl-1′,5′-dioxo-1′,5′-dihydro-2′H-spiro[cyclopentane-1,3′-imidazo[1,5-a]pyridin]-6′-yl)amino]-1,3,5-triazin-2-yl}cyclopropanecarboxamide], `Cc1cc(Nc2ncnc(N)n2)c(=O)n2c1C(=O)NC21CCCC1` [Example 54, 6′-[(4-Amino-1,3,5-triazin-2-yl)amino]-8′-methyl-2′H-spiro[cyclopentane-1,3′-imidazo[1,5-a]pyridine]-1′,5′-dione] is 2.4-fold higher in IC50: 2.4 nM for the first, 5.7 nM for the second.

Compared with `Cc1cc(Nc2ccnc3[nH]cnc23)c(=O)n2c1C(=O)NC21CCCCC1` [Example 57, 6′-(3H-Imidazo[4,5-b]pyridin-7-ylamino)-8′-methyl-2′H-spiro[cyclohexane-1,3′-imidazo[1,5-a]pyridine]-1′,5′-dione], `Cc1cc(Nc2ncnc3[nH]cnc23)c(=O)n2c1C(=O)NC21CCCC1` [Example 67, 8′-methyl-6′-(9H-purin-6-ylamino)-2′H-spiro[cyclopentane-1,3′-imidazo[1,5-a]pyridine]-1′,5′-dione] is 8.9-fold lower in IC50: 6.2 nM for the first, 0.7 nM for the second. The second is the more potent here.

First: Cc1cc(Nc2ncnc3sc(C(=O)O)cc23)c(=O)n2c1C(=O)NC21CCCC1 [Example 58, 4-[(8′-Methyl-1′,5′-dioxo-1′,5′-dihydro-2′H-spiro[cyclopentane-1,3′-imidazo[1,5-a]pyridin]-6′-yl)amino]thieno[2,3-d]pyrimidine-6-carboxylic acid]
Second: Cc1cc(Nc2ncnc3sc(C(=O)NCCN(C)C)cc23)c(=O)n2c1C(=O)NC21CCCC1 [Example 59, N-[2-(Dimethylamino)ethyl]-4-[(8′-methyl-1′,5′-dioxo-1′,5′-dihydro-2′H-spiro[cyclopentane-1,3′-imidazo[1,5-a]pyridin]-6′-yl)amino]thieno[2,3-d]pyrimidine-6-carboxamide]
The IC50 of the first is 7-fold higher: 18.8 nM for the first, 2.7 nM for the second.

Going from `Cc1cc(Nc2ncnc3sc(C(=O)N4CC(C#N)C4)cc23)c(=O)n2c1C(=O)NC21CCCC1` [Example 61, 1-({4-[(8′-Methyl-1′,5′-dioxo-1′,5′-dihydro-2′H-spiro[cyclopentane-1,3′-imidazo[1,5-a]pyridin]-6′-yl)amino]thieno[2,3-d]pyrimidin-6-yl}carbonyl)azetidine-3-carbonitrile] to `Cc1cc(Nc2ncnc3sc(C(=O)N4CC[C@@H](N(C)C)C4)cc23)c(=O)n2c1C(=O)NC21CCCC1` [Example 63, 6′-[(6-{[(3R)-3-(Dimethylamino)pyrrolidin-1-yl]carbonyl}thieno[2,3-d]pyrimidin-4-yl)amino]-8′-methyl-2′H-spiro[cyclopentane-1,3′-imidazo[1,5-a]pyridine]-1′,5′-dione], the IC50 falls from 5.9 nM to 3.8 nM (1.6-fold).

`Cc1cc(Nc2ncnc3sc(C(=O)N4CC(NC(=O)OC(C)(C)C)C4)cc23)c(=O)n2c1C(=O)NC21CCCC1` [Example 62, tert-Butyl [1-({4-[(8′-methyl-1′,5′-dioxo-1′,5′-dihydro-2′H-spiro[cyclopentane-1,3′-imidazo[1,5-a]pyridin]-6′-yl)amino]thieno[2,3-d]pyrimidin-6-yl}carbonyl)azetidin-3-yl]carbamate] and `Cc1cc(Nc2ncnc3sc(C(=O)N4CCC(N(C)C)CC4)cc23)c(=O)n2c1C(=O)NC21CCCC1` [Example 64, 6′-[(6-{[4-(Dimethylamino)piperidin-1-yl]carbonyl}thieno[2,3-d]pyrimidin-4-yl)amino]-8′-methyl-2′H-spiro[cyclopentane-1,3′-imidazo[1,5-a]pyridine]-1′,5′-dione] are within 1.5-fold of each other in IC50: 4 nM for the first, 5.5 nM for the second.

Compared with `Cc1cc(Nc2ncnc3sc(C(=O)N4C[C@H]5C[C@@H]4CO5)cc23)c(=O)n2c1C(=O)NC21CCCCC1` [Example 65, 8′-Methyl-6′-({6-[(1R,4R)-2-oxa-5-azabicyclo[2.2.1]hept-5-ylcarbonyl]thieno[2,3-d]pyrimidin-4-yl}amino)-2′H-spiro[cyclohexane-1,3′-imidazo[1,5-a]pyridine]-1′,5′-dione], `Cc1cc(Nc2ncnc3sc(C(=O)N4C[C@@H]5C[C@H]4CO5)cc23)c(=O)n2c1C(=O)NC21CCCCC1` [Example 66, 8′-Methyl-6′-({6-[(1S,4S)-2-oxa-5-azabicyclo[2.2.1]hept-5-ylcarbonyl]thieno[2,3-d]pyrimidin-4-yl}amino)-2′H-spiro[cyclohexane-1,3′-imidazo[1,5-a]pyridine]-1′,5′-dione] is 1.5-fold higher in IC50: 5.9 nM for the first, 9 nM for the second.

Going from `Cc1cc(Nc2ncnc3[nH]ncc23)c(=O)n2c1C(=O)NC21CCCC1` [Example 68, 8′-methyl-6′-(1H-pyrazolo[3,4-d]pyrimidin-4-ylamino)-2′H-spiro[cyclopentane-1,3′-imidazo[1,5-a]pyridine]-1′,5′-dione] to `Cc1cc(Nc2ncnc3c2CN(S(C)(=O)=O)C3)c(=O)n2c1C(=O)NC21CCCCC1` [Example 69, 8′-methyl-6′-{[6-(methylsulfonyl)-6,7-dihydro-5H-pyrrolo[3,4-d]pyrimidin-4-yl]amino}-2′H-spiro[cyclohexane-1,3′-imidazo[1,5-a]pyridine]-1′,5′-dione], the IC50 rises from 1.8 nM to 144 nM (80-fold). The first is the more potent here.

Going from `Cc1cc(Nc2ncnc3c2CN(S(=O)(=O)c2ccccc2)C3)c(=O)n2c1C(=O)NC21CCCCC1` [Example 70, 8′-methyl-6′-{[6-(phenylsulfonyl)-6,7-dihydro-5H-pyrrolo[3,4-d]pyrimidin-4-yl]amino}-2′H-spiro[cyclohexane-1,3′-imidazo[1,5-a]pyridine]-1′,5′-dione] to `Cc1cc(Nc2ncnc3c2CN(S(=O)(=O)C(F)F)C3)c(=O)n2c1C(=O)NC21CCCCC1` [Example 71, 6′-({6-[(difluoromethyl)sulfonyl]-6,7-dihydro-5H-pyrrolo[3,4-d]pyrimidin-4-yl}amino)-8′-methyl-2′H-spiro[cyclohexane-1,3′-imidazo[1,5-a]pyridine]-1′,5′-dione], the IC50 rises from 21.7 nM to 59.2 nM (2.7-fold).
